Results reported in patent publication US20240285634A1, “COMPOUND AND METHOD FOR TREATING CHEMOTHERAPY-ASSOCIATED GASTROINTESTINAL SIDE EFFECTS” (ONQUALITY PHARMACEUTICALS CHINA LTD., priority 2021, published 2024).

System: Chemotherapeutic agent-caused constipation models of Balb/c mice
Test: Relieving effect on constipation caused by a chemotherapeutic agent (Examples 202-364)
Format: in vivo
Description: Construction of mouse animal models: Chemotherapeutic agent-caused constipation models of Balb/c mice were constructed according to the administration mode and frequency of the chemotherapeutic agent as shown in Table 4. […] Thus, chemotherapeutic agent-caused constipation models of mice are very good models to mimic constipation caused by the chemotherapeutic agent.
Balb/c mice were fed for 1 week, and then divided into groups. The experiment was divided into a control group, a chemotherapeutic agent group, and a group of the compound as shown in Formula I, each of which comprised 10 mice, to perform the administration experiment, for which the administration dosage, mode, time and frequency were shown in Table 4. The control group: being injected or intragastrically administered with the same solvent as that used in the group of the compound as shown in Formula I (the administration mode and time were shown in Table 4), and then being injected or intragastrically administered with the same solvent as that used in the chemotherapeutic agent group (the administration mode was shown in Table 4); the chemotherapeutic agent group: being injected or intragastrically administered with the same solvent as that used in the group of the compound as shown in Formula I (the administration mode and time was shown in Table 4), and then being injected or intragastrically administered with the chemotherapeutic agent (the type, administration mode and dosage were shown in Table 4); the group of the compound as shown in Formula I: being injected or intragastrically administered with the compound as shown in Formula I (the administration mode and time was shown in Table 4), and then being administered with the chemotherapeutic agent (the administration mode and dosage were shown in Table 4).
The feces reduction rate was calculated with reference to the method of Ji Eun Kim (Lab Anim Res. 2016 December; 32(4): 231-240.). Feces reduction rate (%)=(the control group−the chemotherapeutic agent group or the group of the compound as shown in Formula I)/the control group*100%
It is regarded as effective remission when the feces reduction rate of mice in the group of the compound as shown in Formula I is reduced compared with that in the chemotherapeutic agent group.
The feces amount of mice within 3 hours was observed and recorded every day. At the end of the experiment, the number of mice in the group of the compound as shown in Formula I whose feces reduction rate was lower than that of mice in the chemotherapeutic agent group was recorded. Table 4 lists various animal experiment combinations of chemotherapeutic agents and the compound as shown in Formula I, as well as the corresponding experimental results.

CN1CCN(c2ccc(Nc3ncc4cc5n(c4n3)C3(CCCCC3)CNC5=O)nc2)CC1 [Compound I, Trilaciclib]
Relative remission rate (%) (Example 214, Fluorouracil (5-Fu) intraperitoneal injection 175 mg/kg single, compound intravenous injection 12.5 mg/kg, frequency 8, 12 h before chemotherapeutic agent, cycle 10 days): 20% | Relative remission rate (%) (Example 215, Fluorouracil (5-Fu) intraperitoneal injection 175 mg/kg single, compound intravenous injection 25 mg/kg, frequency 8, 12 h before chemotherapeutic agent, cycle 10 days): 30% | Relative remission rate (%) (Example 216, Fluorouracil (5-Fu) intraperitoneal injection 175 mg/kg single, compound intravenous injection 50 mg/kg, frequency 8, 12 h before chemotherapeutic agent, cycle 10 days): 30% | Relative remission rate (%) (Example 217, Fluorouracil (5-Fu) intraperitoneal injection 175 mg/kg single, compound intravenous injection 100 mg/kg, frequency 8, 12 h before chemotherapeutic agent, cycle 10 days): 40% | Relative remission rate (%) (Example 218, Fluorouracil (5-Fu) intraperitoneal injection 175 mg/kg single, compound intravenous injection 150 mg/kg, frequency 8, 12 h before chemotherapeutic agent, cycle 10 days): 60% | Relative remission rate (%) (Example 219, Fluorouracil (5-Fu) intraperitoneal injection 175 mg/kg single, compound intravenous injection 240 mg/kg, frequency 8, 12 h before chemotherapeutic agent, cycle 10 days): 60% | Relative remission rate (%) (Example 220, Fluorouracil (5-Fu) intraperitoneal injection 175 mg/kg single, compound intravenous injection 100 mg/kg, frequency 8, 13 h before chemotherapeutic agent, cycle 10 days): 40% | Relative remission rate (%) (Example 221, Fluorouracil (5-Fu) intraperitoneal injection 175 mg/kg single, compound intravenous injection 100 mg/kg, frequency 8, 14 h before chemotherapeutic agent, cycle 10 days): 40% | Relative remission rate (%) (Example 222, Fluorouracil (5-Fu) intraperitoneal injection 175 mg/kg single, compound intravenous injection 100 mg/kg, frequency 8, 16 h before chemotherapeutic agent, cycle 10 days): 50% | Relative remission rate (%) (Example 223, Fluorouracil (5-Fu) intraperitoneal injection 175 mg/kg single, compound intravenous injection 100 mg/kg, frequency 8, 18 h before chemotherapeutic agent, cycle 10 days): 60% | Relative remission rate (%) (Example 224, Fluorouracil (5-Fu) intraperitoneal injection 175 mg/kg single, compound intravenous injection 100 mg/kg, frequency 8, 20 h before chemotherapeutic agent, cycle 10 days): 60% | Relative remission rate (%) (Example 225, Fluorouracil (5-Fu) intraperitoneal injection 175 mg/kg single, compound intravenous injection 100 mg/kg, frequency 8, 22 h before chemotherapeutic agent, cycle 10 days): 30% | Relative remission rate (%) (Example 226, Fluorouracil (5-Fu) intraperitoneal injection 175 mg/kg single, compound intravenous injection 100 mg/kg, frequency 8, 24 h before chemotherapeutic agent, cycle 10 days): 30% | Relative remission rate (%) (Example 227, Fluorouracil (5-Fu) intraperitoneal injection 175 mg/kg single, compound intravenous injection 100 mg/kg, frequency 8, 48 h before chemotherapeutic agent, cycle 10 days): 0% | Relative remission rate (%) (Example 228, Fluorouracil (5-Fu) intravenous injection 250 mg/kg single, compound intraperitoneal injection 100 mg/kg single, 0.5 h before chemotherapeutic agent, cycle 10 days): 30% | Relative remission rate (%) (Example 229, Fluorouracil (5-Fu) intravenous injection 250 mg/kg single, compound intraperitoneal injection 100 mg/kg single, 1 h before chemotherapeutic agent, cycle 10 days): 40% | Relative remission rate (%) (Example 230, Fluorouracil (5-Fu) intravenous injection 250 mg/kg single, compound intraperitoneal injection 100 mg/kg single, 2 h before chemotherapeutic agent, cycle 10 days): 40% | Relative remission rate (%) (Example 231, Fluorouracil (5-Fu) intravenous injection 250 mg/kg single, compound intraperitoneal injection 100 mg/kg single, 4 h before chemotherapeutic agent, cycle 10 days): 60% | Relative remission rate (%) (Example 232, Fluorouracil (5-Fu) intravenous injection 250 mg/kg single, compound intraperitoneal injection 100 mg/kg single, 6 h before chemotherapeutic agent, cycle 10 days): 60% | Relative remission rate (%) (Example 233, Fluorouracil (5-Fu) intravenous injection 250 mg/kg single, compound intraperitoneal injection 100 mg/kg single, 8 h before chemotherapeutic agent, cycle 10 days): 50% | Relative remission rate (%) (Example 234, Fluorouracil (5-Fu) intravenous injection 250 mg/kg single, compound intraperitoneal injection 100 mg/kg single, 10 h before chemotherapeutic agent, cycle 10 days): 50% | Relative remission rate (%) (Example 235, Fluorouracil (5-Fu) intravenous injection 250 mg/kg single, compound intraperitoneal injection 100 mg/kg single, 12 h before chemotherapeutic agent, cycle 10 days): 70% | Relative remission rate (%) (Example 236, Fluorouracil (5-Fu) intravenous injection 250 mg/kg single, compound intraperitoneal injection 100 mg/kg single, 14 h before chemotherapeutic agent, cycle 10 days): 40% | Relative remission rate (%) (Example 237, Fluorouracil (5-Fu) intravenous injection 250 mg/kg single, compound intraperitoneal injection 100 mg/kg single, 16 h before chemotherapeutic agent, cycle 10 days): 40% | Relative remission rate (%) (Example 238, Fluorouracil (5-Fu) intravenous injection 250 mg/kg single, compound intraperitoneal injection 100 mg/kg single, 18 h before chemotherapeutic agent, cycle 10 days): 50% | Relative remission rate (%) (Example 239, Fluorouracil (5-Fu) intravenous injection 250 mg/kg single, compound intraperitoneal injection 100 mg/kg single, 20 h before chemotherapeutic agent, cycle 10 days): 50% | Relative remission rate (%) (Example 240, Fluorouracil (5-Fu) intravenous injection 250 mg/kg single, compound intraperitoneal injection 100 mg/kg single, 24 h before chemotherapeutic agent, cycle 10 days): 50% | Relative remission rate (%) (Example 287, Irinotecan (CPT-11) intraperitoneal injection 260 mg/kg single, compound intravenous injection 150 mg/kg single, 1 h before chemotherapeutic agent, cycle 8 days): 40%
